Test results reported in patent US9072791B2, “Photostabilized pharmaceutical compositions” (DENKI KAGAKU KOGYO KABUSHIKI KAISHA, priority 2008, dated 2015).
Several values for one entry are separate records, joined by “and”; a condition that tells them apart may be missing. Equal entries are not always repeated. Where two headings read alike, the source gives them in different places.

How the values were obtained:
[1] = Photostability test in glass vials not shielded from light: gelation, molecular weight, percent conjugation of MTX (Example 4(2)); format: physicochemical
Method: Various photostabilizers (methyl p-hydroxybenzoate (methyl paraben), salicylic acid Na, thiosulfuric acid Na, thioglycolic acid Na, N-acetyltryptophan, and tryptophan) were each dissolved in a preparation buffer (0.9% NaCl containing 2 mM phosphate buffer, pH 7.4) to give a concentration of 1 or 10 mg/ml and thereafter filtered aseptically by passage through a 0.2-μm filter (Millex GV). A powder of the HA-MTX conjugate prepared in accordance with Production 1 was metered aseptically and dissolved in the filtered, photostabilizer-containing preparation buffer to give a concentration of 10 mg/mL; the thus prepared solutions were used as test samples. To prepare a control solution, the HA-MTX conjugate was dissolved in a photostabilizer-free preparation buffer at a concentration of 10 mg/mL.
The thus prepared solutions were put into glass vials not shielded from light and then irradiated with light.
The irradiation was so performed as to give an illuminance of 4000 Lux at 25° C. from a fluorescent lamp for use in a photostability test (TOSHIBA FL20S•D-EDL-D65) by means of a photostability tester (ETAC LABONIC LA110). After the lapse of specified periods (0 h, 25 h, 50 h, 100 h, 150 h, and 300 h) of irradiation, samples were taken and not only checked for gelation but also measured for the molecular weight of the HA-MTX conjugate and the percent conjugation of MTX (in the HA-MTX conjugate).
To evaluate the degree of gelation, the surface of each sample solution was pierced with a spatula and visually checked for the formation of an interface as the result of gelation. […] The apparatus used in gel filtration chromatography was equipped with OHpackSB-806HQ (Shodex) as a column, RI-71 (Shodex) as an […], and 875-UV (JASCO, detection wavelength: 304 nm) as a UV detector and analysis was conducted under the following conditions. Eluent: 50 mM sodium phosphate aqueous solution (pH 6.0); elution rate: 0.6 mL/min; column temperature: 40° C. By the above-described gel filtration chromatography, the elution times of the conjugate of interest were determined and the molecular weight of the same conjugate was determined from the relationship between the elution times and molecular weights of standard substances. As the standard substances, hyaluronic acid samples were prepared in varying molecular weights and their accurate values were calculated by the limiting viscosity method before it was used.

[2] = Photostability test with additional light-shielding film LUMICOOL 1905 (Example 6); format: physicochemical; details: for Molecular weight (×10^4), irradiation time 0 h / Molecular weight (×10^4), irradiation time 150 h / Molecular weight (×10^4), irradiation time 300 h / Percent Conjugation (%), irradiation time 0 h / Percent Conjugation (%), irradiation time 150 h / Percent Conjugation (%), irradiation time 300 h: vial wrapped with LUMICOOL 1905;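 as to all read-outs here: molecular weight and drug conjugation percentage of the test conjugate, both determined by the method given for the first production procedure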
[3] = added at 1 mg/mL, not shielded from light
[4] = additive 1 mg/ml, 4000 Lux, 25° C., not shielded from light
[5] = additive 10 mg/ml, 4000 Lux, 25° C., not shielded from light

Structure (SMILES) | Molecular weight (×10^4), irradiation time 0 h [1, 4] | Molecular weight (×10^4), irradiation time 25 h [1, 4] | Molecular weight (×10^4), irradiation time 50 h [1, 4] | Molecular weight (×10^4), irradiation time 100 h [1, 4] | Molecular weight (×10^4), irradiation time 150 h [1, 4] | Molecular weight (×10^4), irradiation time 300 h [1, 4] | Percent Conjugation (%) of MTX, irradiation time 0 h [1, 4] [%] | Percent Conjugation (%) of MTX, irradiation time 25 h [1, 4] [%] | Percent Conjugation (%) of MTX, irradiation time 50 h [1, 4] [%] | Percent Conjugation (%) of MTX, irradiation time 100 h [1, 4] [%] | Percent Conjugation (%) of MTX, irradiation time 150 h [1, 4] [%] | Percent Conjugation (%) of MTX, irradiation time 300 h [1, 4] [%] | Molecular weight (×10^4), irradiation time 0 h ([2]; additive 1 mg/mL) | Molecular weight (×10^4), irradiation time 150 h ([2]; additive 1 mg/mL) | Molecular weight (×10^4), irradiation time 300 h ([2]; additive 1 mg/mL) | Percent Conjugation (%), irradiation time 0 h ([2]; additive 1 mg/mL) [%] | Percent Conjugation (%), irradiation time 150 h ([2]; additive 1 mg/mL) [%] | Percent Conjugation (%), irradiation time 300 h ([2]; additive 1 mg/mL) [%] | Molecular weight (×10^4), irradiation time 0 h ([2]; additive 10 mg/mL) | Molecular weight (×10^4), irradiation time 150 h ([2]; additive 10 mg/mL) | also measured
COC(=O)c1ccc(O)cc1 [Methyl paraben, methyl p-hydroxybenzoate] | 187 ×10^4 | 155 ×10^4 | 127 ×10^4 | 107 ×10^4 | 126 ×10^4 | 65 ×10^4 | 2.2 | 2.0 | 2.1 | 2.0 | 2.1 | 1.9 | 187 ×10^4 | 184 ×10^4 | 179 ×10^4 | 2.2 | 2.2 | 2.2 | – | – | suppressing drops in the molecular weight and percent conjugation [1, 3]: could suppress drops in the molecular weight and percent conjugation for irradiation periods that did not exceed about 100 hours; stabilizing effects (suppressing effects on the drop in molecular weight and the drop in percent conjugation of MTX) [2]: comparable to those obtained in the case where complete shielding of light was ensured by aluminum foil
CC(=O)N[C@@H](Cc1c[nH]c2ccccc12)C(=O)O [N-acetyltryptophan] | 178 ×10^4 | 164 ×10^4 | 166 ×10^4 | 138 ×10^4 | 128 ×10^4 | 78 ×10^4 | 2.2 | 2.2 | 2.3 | 2.2 | 2.1 | 2.1 | 178 ×10^4 | 172 ×10^4 | 136 ×10^4 | 2.2 | 2.3 | 2.2 | 190 ×10^4 | 186 ×10^4 | suppressing drops in the molecular weight and percent conjugation [1, 3]: could suppress drops in the molecular weight and percent conjugation for irradiation periods that did not exceed about 100 hours; Molecular weight (×10^4), irradiation time 0 h [1, 5]: 190 ×10^4; Molecular weight (×10^4), irradiation time 25 h [1, 5]: 180 ×10^4; Molecular weight (×10^4), irradiation time 50 h [1, 5]: 175 ×10^4; Molecular weight (×10^4), irradiation time 100 h [1, 5]: 146 ×10^4; Molecular weight (×10^4), irradiation time 150 h [1, 5]: 135 ×10^4; Molecular weight (×10^4), irradiation time 300 h [1, 5]: 97 ×10^4; Percent Conjugation (%) of MTX, irradiation time 0 h [1, 5]: 2.2%; Percent Conjugation (%) of MTX, irradiation time 25 h [1, 5]: 2.2%; Percent Conjugation (%) of MTX, irradiation time 50 h [1, 5]: 2.2%; Percent Conjugation (%) of MTX, irradiation time 100 h [1, 5]: 1.9%; Percent Conjugation (%) of MTX, irradiation time 150 h [1, 5]: 2.1%; Percent Conjugation (%) of MTX, irradiation time 300 h [1, 5]: 2.0%; Molecular weight (×10^4), irradiation time 300 h ([2]; additive 10 mg/mL): 187 ×10^4; Percent Conjugation (%), irradiation time 0 h ([2]; additive 10 mg/mL): 2.2%; Percent Conjugation (%), irradiation time 150 h ([2]; additive 10 mg/mL): 2.2%; Percent Conjugation (%), irradiation time 300 h ([2]; additive 10 mg/mL): 2.2%
O=C([O-])c1ccccc1O.[Na+] [Na salicylate, sodium salicylate] | – | – | – | – | – | – | – | – | – | – | – | – | 186 ×10^4 | 184 ×10^4 | 163 ×10^4 | 2.2 | 2.1 | 2.2 | 185 ×10^4 | 190 ×10^4 | Molecular weight (×10^4), irradiation time 0 h [1]: 185 ×10^4 and 186 ×10^4; Molecular weight (×10^4), irradiation time 25 h [1]: 176 ×10^4 and 172 ×10^4; Percent Conjugation (%) of MTX, irradiation time 0 h [1]: 2.2%; Percent Conjugation (%) of MTX, irradiation time 25 h [1]: 2.2%; Percent Conjugation (%) of MTX, irradiation time 50 h [1]: 2.1%; Percent Conjugation (%) of MTX, irradiation time 100 h [1]: 2.1% and 1.9%; Percent Conjugation (%) of MTX, irradiation time 150 h [1]: 2.2% and 1.8%; Percent Conjugation (%) of MTX, irradiation time 300 h [1]: 2.2% and 2.0%; suppressing drops in the molecular weight and percent conjugation [1]: considerably effective in suppressing drops in the molecular weight and percent conjugation even when the time of irradiation exceeded 100 hours; Molecular weight (×10^4), irradiation time 300 h ([2]; additive 10 mg/mL): 179 ×10^4; Percent Conjugation (%), irradiation time 0 h ([2]; additive 10 mg/mL): 2.2%; Percent Conjugation (%), irradiation time 150 h ([2]; additive 10 mg/mL): 2.2%; Percent Conjugation (%), irradiation time 300 h ([2]; additive 10 mg/mL): 2.1%; stabilizing effects (suppressing effects on the drop in molecular weight and the drop in percent conjugation of MTX) ([2]; with light-shielding film LUMICOOL 1905): comparable to those obtained in the case where complete shielding of light was ensured by aluminum foil
O=C([O-])CS.[Na+] [Na thioglycolate, sodium thioglycolate] | 163 ×10^4 | 136 ×10^4 | 97 ×10^4 | 8 ×10^4 | 5 ×10^4 | 2 ×10^4 | 2.1 | 2.2 | 2.2 | 1.4 | 1.0 | 0.4 | 163 ×10^4 | 123 ×10^4 | 44 ×10^4 | 2.1 | 2.2 | 2.2 | 181 ×10^4 | 170 ×10^4 | suppressing drops in the molecular weight and percent conjugation ([1]; added at 10 mg/ml, not shielded from light): considerably effective in suppressing drops in the molecular weight and percent conjugation even when the time of irradiation exceeded 100 hours; Molecular weight (×10^4), irradiation time 0 h [1, 5]: 181 ×10^4; Molecular weight (×10^4), irradiation time 25 h [1, 5]: 166 ×10^4; Molecular weight (×10^4), irradiation time 50 h [1, 5]: 169 ×10^4; Molecular weight (×10^4), irradiation time 100 h [1, 5]: 163 ×10^4; Molecular weight (×10^4), irradiation time 150 h [1, 5]: 154 ×10^4; Molecular weight (×10^4), irradiation time 300 h [1, 5]: 5 ×10^4; Percent Conjugation (%) of MTX, irradiation time 0 h [1, 5]: 2.1%; Percent Conjugation (%) of MTX, irradiation time 25 h [1, 5]: 2.2%; Percent Conjugation (%) of MTX, irradiation time 50 h [1, 5]: 2.3%; Percent Conjugation (%) of MTX, irradiation time 100 h [1, 5]: 2.0%; Percent Conjugation (%) of MTX, irradiation time 150 h [1, 5]: 2.2%; Percent Conjugation (%) of MTX, irradiation time 300 h [1, 5]: 1.4%; Molecular weight (×10^4), irradiation time 300 h ([2]; additive 10 mg/mL): 157 ×10^4; Percent Conjugation (%), irradiation time 0 h ([2]; additive 10 mg/mL): 2.1%; Percent Conjugation (%), irradiation time 150 h ([2]; additive 10 mg/mL): 2.1%; Percent Conjugation (%), irradiation time 300 h ([2]; additive 10 mg/mL): 2.2%
